Test results from ChEMBL document CHEMBL3632542, “A computational view on the significance of E-ring in binding of (+)-arisugacin A to acetylcholinesterase” (Bioorg Med Chem Lett, 2015).

Molecular target: Acetylcholinesterase (Homo sapiens, UniProt P22303)
Assay: Inhibition of human AChE

Chain of Acetylcholinesterase (P22303 whole entry): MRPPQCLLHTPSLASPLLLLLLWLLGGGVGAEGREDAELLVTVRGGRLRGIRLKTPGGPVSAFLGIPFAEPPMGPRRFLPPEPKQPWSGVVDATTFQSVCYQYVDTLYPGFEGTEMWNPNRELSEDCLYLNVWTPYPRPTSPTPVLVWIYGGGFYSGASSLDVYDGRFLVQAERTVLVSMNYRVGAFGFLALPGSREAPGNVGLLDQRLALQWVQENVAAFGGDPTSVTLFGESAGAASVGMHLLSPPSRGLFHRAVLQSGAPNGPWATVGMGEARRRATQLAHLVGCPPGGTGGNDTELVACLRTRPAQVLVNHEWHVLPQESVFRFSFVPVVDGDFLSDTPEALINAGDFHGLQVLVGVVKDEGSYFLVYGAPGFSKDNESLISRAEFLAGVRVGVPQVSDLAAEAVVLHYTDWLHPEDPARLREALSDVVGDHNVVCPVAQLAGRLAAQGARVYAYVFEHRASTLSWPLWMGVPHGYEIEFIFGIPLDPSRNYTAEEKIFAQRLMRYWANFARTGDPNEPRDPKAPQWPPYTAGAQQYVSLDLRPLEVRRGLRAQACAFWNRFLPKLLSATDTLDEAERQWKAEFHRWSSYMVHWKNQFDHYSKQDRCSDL

Row | SMILES | IC50
1 | COc1cc(-c2cc3c(c(=O)o2)C[C@]2(O)[C@@]4(C)C(=O)C=CC(C)(C)[C@]4(O)CC[C@@]2(C)O3)cc(OC)c1OC [TERRITREM B] | 7.6 nM
2 | COc1ccc(-c2cc3c(c(=O)o2)C[C@H]2[C@@](C)(CC[C@@]4(O)C(C)(C)[C@H](O)CC[C@]24C)O3)cc1 | > 100000 nM
3 | COc1ccc(-c2cc3c(c(=O)o2)C[C@]2(O)[C@@]4(C)CC[C@@H](OC(C)=O)C(C)(C)[C@]4(O)CC[C@@]2(C)O3)cc1 | 3500 nM
4 | COc1ccc(-c2cc3c(c(=O)o2)C[C@H]2[C@@](C)(CC[C@@]4(O)C(C)(C)C(=O)CC[C@]24C)O3)cc1 | 2500 nM
5 | COc1ccc(-c2cc3c(c(=O)o2)C[C@@H]2[C@@]4(C)CC[C@H](O)C(C)(C)[C@@H]4CC[C@@]2(C)O3)cc1 | > 100000 nM
6 | COc1ccc(-c2cc3c(c(=O)o2)C[C@]2(O)[C@@]4(C)[C@@H](O)C[C@@H](OC(C)=O)C(C)(C)[C@]4(O)CC[C@@]2(C)O3)cc1 | > 100000 nM
7 | COc1cc(-c2cc3c(c(=O)o2)C[C@]2(O)[C@@]4(C)C(=O)C=CC(C)(C)[C@]4(O)CC[C@@]2(C)O3)cc(OC)c1O | 6.8 nM
8 | COc1ccc(-c2cc3c(c(=O)o2)C[C@@H]2[C@@]4(C)CCC(=O)C(C)(C)[C@@H]4CC[C@@]2(C)O3)cc1 | > 100000 nM
